# Measured values taken from ChEMBL document CHEMBL6114992, “Design, synthesis, biological evaluation, and mechanism of action of new pyrazines as anticancer agents in vitro and in vivo” (Bioorg Med Chem, 2025).
# Tests used:
# Type in all cases: functional, cell-based
# THP-1 = assay: Antiproliferative activity against human THP-1 cells assessed as inhibition of cell growth incubated for 72 hrs by MTT assay; details: THP-1, 72 h
# KG-1 = assay: Antiproliferative activity against human KG-1 cells assessed as inhibition of cell growth incubated for 72 hrs by MTT assay; details: KG-1, 72 h
# U-937 = assay: Antiproliferative activity against human U-937 cells assessed as inhibition of cell growth incubated for 72 hrs by MTT assay; details: U-937, 72 h
# SK-OV-3 = assay: Antiproliferative activity against human SK-OV-3 cells assessed as inhibition of cell growth incubated for 72 hrs by MTT assay; details: SK-OV-3, 72 h
# [1] = Antiproliferative activity against human SK-OV-3/Taxol cells assessed as inhibition of cell growth incubated for 72 hrs by MTT assay; details: SK-OV-3, 72 h
Compound,IC50 (THP-1) [µM],IC50 (U-937) [µM],IC50 (SK-OV-3) [µM],IC50 (KG-1) [µM],IC50 [1] [µM]
Cc1nccnc1C(=O)/C=C/c1ccc2c(c1)OC(F)(F)O2,5.89,3.63,5.1,6.52,6.11
Cc1nccnc1C(=O)/C=C/c1ccc(C(C)(C)C)cc1,27.2,18.5,16.6,44.1,14.2
CCc1nccnc1C(=O)/C=C/c1ccccc1C,4.91,3.43,8.68,22.9,10.8
CCc1nccnc1C(=O)/C=C/c1ccc(-c2ccccc2)cc1,9.14,9.55,16.9,22.6,16.4
Cc1nccnc1C(=O)/C=C/c1ccc(C#N)cc1,0.72,2.08,4.49,1.01,4.63
CCc1nccnc1C(=O)/C=C/c1ccccc1Br,4.57,1.58,7.93,3.58,8.35
CCc1nccnc1C(=O)/C=C/c1ccc(OC)cc1,6.02,5.24,11,22.7,9.88
CC(/C=C/C(=O)c1cnccn1)=C\c1ccccc1,19.4,22.8,29.6,44.5,30.6
O=C(/C=C/c1ccc(-c2ccccc2)cc1)c1cnccn1,> 50,31.8,16.6,> 50,16.3
CCc1nccnc1C(=O)/C=C/c1ccc(Cl)cc1,4.7,2.3,7.08,3.67,6.72
Cc1ccccc1/C=C/C(=O)c1cnccn1,15.7,23.6,31.2,15.2,33.7

# The next lines start with results.
IC50 (THP-1) [µM],IC50 (U-937) [µM],IC50 (SK-OV-3) [µM],Compound,IC50 (KG-1) [µM],IC50 [1] [µM]
11.8,11.4,7.18,O=C(/C=C/c1ccccc1Cl)c1cnccn1,8.34,10.2
20.3,16.3,28.5,Cc1cccc(/C=C/C(=O)c2cnccn2)c1,9.84,25.9
1.76,2.36,3.08,Cc1nccnc1C(=O)/C=C/c1ccccc1Cl,1.26,2.94
3.44,4.45,4.05,CCc1nccnc1C(=O)/C=C/c1ccccc1N1CCOCC1,5.46,3.96
31.1,11.3,12.7,Cc1nccnc1C(=O)/C=C/c1ccc(Br)cc1,20.9,13.7
10.3,15.2,21.9,COc1ccc(/C=C/C(=O)c2cnccn2)cc1,8.71,21.1
1.93,2.6,3.83,Cc1ccc(/C=C/C(=O)c2nccnc2C)cc1,3.83,3.3
5.72,6.21,4.81,Cc1nccnc1C(=O)/C=C/c1ccc[nH]1,7.15,5.38
> 50,> 50,> 50,CCN(CC)c1ccc(/C=C/C(=O)c2cnccn2)cc1,> 50,> 50
5.23,3.23,7.57,Cc1nccnc1C(=O)/C=C/c1ccc(C(F)(F)F)cc1,5.66,8.99
2.07,1.5,4.78,Cc1nccnc1C(=O)/C=C/c1csc2ccccc12,1.54,3.28
5.29,8,> 50,O=C(/C=C/c1cccc([N+](=O)[O-])c1)c1cnccn1,10.3,> 50
